{
  "source": "patent US9145437B2",
  "about": "“Urea compounds” (Eli Lilly and Company, priority 2013, dated 2015)",
  "key": {"mouse SGLT1": {"target": "T1, mouse SGLT1 (Mus musculus, UniProt Q8C3K6)", "T1 construct": "expressed in transfected cells", "T1 sequence (Q8C3K6 1-665)": "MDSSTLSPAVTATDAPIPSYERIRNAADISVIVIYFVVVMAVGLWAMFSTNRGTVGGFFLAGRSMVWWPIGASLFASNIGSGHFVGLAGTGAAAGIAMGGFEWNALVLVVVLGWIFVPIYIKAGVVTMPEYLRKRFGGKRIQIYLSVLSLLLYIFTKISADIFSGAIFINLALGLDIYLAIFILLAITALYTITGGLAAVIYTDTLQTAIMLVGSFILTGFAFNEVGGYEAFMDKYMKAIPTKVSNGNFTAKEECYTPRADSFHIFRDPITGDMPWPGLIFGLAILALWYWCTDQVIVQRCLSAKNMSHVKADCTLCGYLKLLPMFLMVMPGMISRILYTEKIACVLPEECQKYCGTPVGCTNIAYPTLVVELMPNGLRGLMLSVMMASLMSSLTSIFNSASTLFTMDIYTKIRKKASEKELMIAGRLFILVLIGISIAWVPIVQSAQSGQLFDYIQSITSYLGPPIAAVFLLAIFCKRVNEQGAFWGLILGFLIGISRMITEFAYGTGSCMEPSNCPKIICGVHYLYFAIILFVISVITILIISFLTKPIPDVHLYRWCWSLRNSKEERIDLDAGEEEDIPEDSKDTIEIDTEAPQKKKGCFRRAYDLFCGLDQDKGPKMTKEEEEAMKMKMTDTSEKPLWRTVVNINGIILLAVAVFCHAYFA", "assay": "Sodium-dependent 14C-AMG uptake assay in CHO-K1 cells expressing mouse SGLT1", "type": "cell-based", "conditions": "n=5", "from_the_text": "(§1) The cDNA encoding human SGLT1 (slc5al, NM_000343) and mouse SGLT1 (slc5al, NM_019810.4) are purchased from Openbiosystems, Invitrogen and Openbiosystems, respectively. The cDNA is cloned into pcDNA3.1+ for mammalian expression and is stably transfected into Chinese hamster ovary (CHO)-K1 cells using standard mammalian transfection procedures. An SGLT-expressing sub-clone of each over-expressing cell line is selected based on resistance to neomycin (Geneticin, Invitrogen) and activity in the ^14C-α-methyl-D-glucopyranoside (^14C-AMG) uptake assay (see below). Stable SGLT-expressing cells are maintained using standard cell culture techniques.\n(§2) The SGLT activity is measured as sodium-dependent ^14C-AMG uptake in the above cell lines described as follows. One hundred μL of culture medium containing 30,000 cells are seeded to each well of a 96-well BioCoat poly-D-lysine plate (Becton Dickson) and cultured at 37° C. overnight. The culture medium is aspirated and cells are washed twice with 200 μL of Reaction Buffer (140 mM NaCl, 2 mM KCl, 1 mM CaCl2, MgCl2, and 14 mM N-2-hydroethylpiperrazine-N′-2-ethanesulfonic acid (Hepes), pH 7.5). The excess buffer is tapped out onto paper towels. Thirty-five μL of Reaction Buffer are added to each well. […] After mixing, the scintillation signal in the plate is counted in a MicroBeta (PerkinElmer). […]"}, "human SGLT1": {"target": "T2, human SGLT1 (Homo sapiens, UniProt P13866)", "T2 construct": "expressed in transfected cells", "T2 sequence (P13866 1-664)": "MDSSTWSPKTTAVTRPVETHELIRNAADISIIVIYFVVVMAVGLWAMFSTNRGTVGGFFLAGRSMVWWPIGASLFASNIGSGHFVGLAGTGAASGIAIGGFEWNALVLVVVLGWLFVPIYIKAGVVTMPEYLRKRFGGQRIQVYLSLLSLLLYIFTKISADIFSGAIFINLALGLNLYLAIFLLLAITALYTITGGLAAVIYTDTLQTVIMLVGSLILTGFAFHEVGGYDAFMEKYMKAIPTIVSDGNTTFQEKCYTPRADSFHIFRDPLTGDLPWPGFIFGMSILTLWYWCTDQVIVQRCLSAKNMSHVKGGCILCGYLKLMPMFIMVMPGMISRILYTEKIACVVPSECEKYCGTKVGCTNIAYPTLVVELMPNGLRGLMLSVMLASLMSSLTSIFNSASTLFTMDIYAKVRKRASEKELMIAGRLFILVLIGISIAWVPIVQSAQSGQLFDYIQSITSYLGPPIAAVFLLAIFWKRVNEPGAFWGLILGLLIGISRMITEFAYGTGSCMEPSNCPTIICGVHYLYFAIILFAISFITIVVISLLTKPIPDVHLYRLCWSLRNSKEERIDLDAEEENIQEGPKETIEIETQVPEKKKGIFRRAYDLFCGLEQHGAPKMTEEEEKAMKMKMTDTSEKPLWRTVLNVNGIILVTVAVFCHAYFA", "assay": "Sodium-dependent 14C-AMG uptake assay in CHO-K1 cells expressing human SGLT1", "type": "cell-based", "conditions": "n=5", "from_the_text": "as §1, §2"}, "C57Bl/6 mice": {"system": "C57Bl/6 mice", "assay": "Glucose lowering effects in oral glucose tolerance test (OGTT)", "type": "in vivo, mouse", "design": "Baseline Adjusted AUC (glucose): unit not given here", "conditions": "for Glucose 20 Minute / Glucose 40 Minute / Glucose 60 Minute / Baseline Adjusted AUC (glucose) / Glucose Cmax / Glucose Tmax / Glucose 0 Minute: 10 mg/kg oral, Mean ± SEM; for Glucose 20 Minute: 20 min after 3 g/kg dextrose; for Glucose 40 Minute: 40 min after 3 g/kg dextrose; for Glucose 60 Minute: 60 min after 3 g/kg dextrose; for Glucose 0 Minute: baseline before 3 g/kg dextrose", "experimental": "The test compound is formulated by adding a vehicle of 1% hydroxyethylcellulose, 0.25% Tween® 80 w/antifoam 0.05% to preweighed test compound to make a 1 mg/ml solution. The mixture is probe sonicated for approximately 1 minute. A stir bar is added, and the resulting suspension is stirred continuously throughout dosing.\nThe first set of mice receiving an OGTT 18 hours after compound administration, the second 8 hours after compound administration. The first set of animals are weighed and body weights used to determine study groups (n=5), within a working range of 26-30 g. After grouping, the mice are orally gavaged with 10 ml/kg of test compound preparation or vehicle, thirty seconds apart. […] Both sets, 18 and 8 hour OGTT, of mice are then fasted overnight by removing access to food, late afternoon before test day. The following morning, the 8 hour OGTT mice are weighed and bled (via tail snip) for glucose. Study groups (n=5) are determine using fasted glucose values, within a working range of 80-100 mg/dl. After grouping the mice are orally gavaged with compound, thirty seconds apart. These mice then receive an OGTT 8 hours after compound administration.\nAt eight and eighteen hours after each respective compound treatment is started, a baseline blood sample is taken for measuring glucose (from the first animal). The animal is then immediately given an oral dose of 50% dextrose (Hospira®) at 3 g/kg. Blood samples are taken for glucose, exactly thirty seconds apart, by tail vein so that blood is collected in each animal at 20, 40, and 60 minutes after the dextrose dose."}},
  "data": [
    {"compound": "Cc1cccc2c1c(Cc1ccc(OCCCN3CCCC4(CCN(C(=O)CNC(=O)NCC(C)C)CC4)C3)cc1)cn2[C@@H]1O[C@H](CO)[C@@H](O)[C@H](O)[C@H]1O", "note": "[Example 1, 1-isobutyl-3-[2-[4-[3-[4-[[4-methyl-1-[(2R,3R,4S,5S,6R)-3,4,5-trihydroxy-6-(hydroxymethyl)tetrahydropyran-2-yl]indol-3-yl]methyl]phenoxy]propyl]-4,9-diazaspiro[5.5]undecan-9-yl]-2-oxo-ethyl]urea]", "values": [
      {"measurement": "IC50", "setting": "mouse SGLT1", "value": "0.0149 ± 0.0104", "unit": "µM"},
      {"measurement": "IC50", "setting": "human SGLT1", "value": "0.0352 ± 0.0141", "unit": "µM"},
      {"measurement": "Glucose 20 Minute", "setting": "C57Bl/6 mice; OGTT 8 hrs post dose", "value": "114 ± 3.36", "unit": "mg/dL"},
      {"measurement": "Glucose 40 Minute", "setting": "C57Bl/6 mice; OGTT 8 hrs post dose", "value": "131 ± 6.81", "unit": "mg/dL"},
      {"measurement": "Glucose 60 Minute", "setting": "C57Bl/6 mice; OGTT 8 hrs post dose", "value": "125.8 ± 7.52", "unit": "mg/dL"},
      {"measurement": "Baseline Adjusted AUC (glucose)", "setting": "C57Bl/6 mice; OGTT 8 hrs post dose", "value": "2370 ± 315"},
      {"measurement": "Glucose Cmax", "setting": "C57Bl/6 mice; OGTT 8 hrs post dose", "value": "132.9 ± 6.68", "unit": "mg/dL"},
      {"measurement": "Glucose Tmax", "setting": "C57Bl/6 mice; OGTT 8 hrs post dose", "value": "44 ± 7.48", "unit": "min"},
      {"measurement": "Glucose 0 Minute", "setting": "C57Bl/6 mice; OGTT 8 hrs post dose", "value": "75.8 ± 2.48", "unit": "mg/dL"},
      {"measurement": "Glucose 20 Minute", "setting": "C57Bl/6 mice; OGTT 18 hrs post dose", "value": "121.4 ± 5.16", "unit": "mg/dL"},
      {"measurement": "Glucose 40 Minute", "setting": "C57Bl/6 mice; OGTT 18 hrs post dose", "value": "127 ± 9.78", "unit": "mg/dL"},
      {"measurement": "Glucose 60 Minute", "setting": "C57Bl/6 mice; OGTT 18 hrs post dose", "value": "125 ± 7.27", "unit": "mg/dL"},
      {"measurement": "Baseline Adjusted AUC (glucose)", "setting": "C57Bl/6 mice; OGTT 18 hrs post dose", "value": "2258 ± 252"},
      {"measurement": "Glucose Cmax", "setting": "C57Bl/6 mice; OGTT 18 hrs post dose", "value": "134.2 ± 6.72", "unit": "mg/dL"},
      {"measurement": "Glucose Tmax", "setting": "C57Bl/6 mice; OGTT 18 hrs post dose", "value": "44 ± 7.48", "unit": "min"},
      {"measurement": "Glucose 0 Minute", "setting": "C57Bl/6 mice; OGTT 18 hrs post dose", "value": "79.2 ± 4.51", "unit": "mg/dL"},
      {"measurement": "glucose excursion after oral bolus of 50% dextrose", "setting": "C57Bl/6 mice; normal glycemic C57Bl/6 mouse, eight or eighteen hours after administration", "value": "decrease"}
    ]}
  ]
}
